Results on two molecules are retold here after ChEMBL document CHEMBL3861948 (Medchemcomm, 2016).

In the assay the target is Mitogen-activated protein kinase 14 (Homo sapiens, UniProt Q16539). Nature of the assay: Inhibition of p38alpha in human THP1 cells assessed as suppression of LPS-induced TNFalpha secretion preincubated for 30 mins followed by LPS challenge measured after 2 hrs. It counts as cell-based, THP-1.

The IC50 is the midpoint of a concentration-inhibition curve.

Chain of Mitogen-activated protein kinase 14 (Q16539 whole entry): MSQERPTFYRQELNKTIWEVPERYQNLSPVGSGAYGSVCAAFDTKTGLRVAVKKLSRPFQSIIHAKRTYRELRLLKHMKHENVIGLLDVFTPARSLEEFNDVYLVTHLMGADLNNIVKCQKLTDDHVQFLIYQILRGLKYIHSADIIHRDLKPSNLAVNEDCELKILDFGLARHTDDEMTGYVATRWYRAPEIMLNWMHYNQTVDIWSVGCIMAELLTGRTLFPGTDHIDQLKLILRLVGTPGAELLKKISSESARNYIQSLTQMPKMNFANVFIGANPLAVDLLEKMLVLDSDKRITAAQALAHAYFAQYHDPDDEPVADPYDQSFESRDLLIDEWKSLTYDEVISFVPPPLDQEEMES

As for `CNC(=O)[C@H](Cc1cccc(C(F)(F)F)c1)NC(=O)c1ccc(CNC(=O)c2cnn(-c3ccccc3)c2N)cc1`, the 50% inhibitory concentration (IC50) turned out to be 46 nM. Turning to `NC(=O)[C@H](CCC1CCCCC1)NC(=O)[C@H]1CC[C@H](CNC(=O)c2cnn(-c3ccccc3)c2N)CC1`, the IC50 stood at 44 nM.
